pEC50: −log10 of the molar value.

The subject of series [1] is MT4 cells. Nature of the series: Cytotoxicity in MT4 cells (LC50, 50% of the cells remain viable). It is filed as cell-based. Conditions: MT4 cells; concentration at which 50% of the cells remain viable. From the text:
(§1) The IC50 is the concentration of compound that gives 50% inhibition of the cytopathic effect of HIV. The LC50 is the concentration of compound at which 50% of the cells remain viable.

Series [2] concerns the target HIV-1 protease (Human immunodeficiency virus type 1 group M subtype B, UniProt P04585). Nature of the series: Fluorogenic assay for screening inhibitors of HIV protease. As to conditions: compound concentration 0.5 nM; fluorogenic substrate 1.3 μM, pH 4.5, 30° C.
Description: A compound of the invention is dissolved in DMSO. A small aliquot is diluted with DMSO to 100 times the final concentration desired for testing. The test is carried out in a 6×50 mm tube in a total volume of 300 microliters. The final concentrations of the components in the reaction buffer are: 125 mM sodium acetate, 1 M sodium chloride, 5 mM dithiothreitol, 0.5 mg/ml bovine serum albumin, 1.3 μM fluorogenic substrate, 2% (v/v) dimethylsulfoxide, pH 4.5. After addition of inhibitor, the reaction mixture is placed in the fluorometer cell holder and incubated at 30° C. for several minutes. The reaction is initiated by the addition of a small aliquot of cold HIV protease. The fluorescence intensity (excitation 340 nm, emmision 490 nM) is recorded as a function of time. The reaction rate is determined for the first six to eight minutes. The observed rate is directly proportional to the moles of substrate cleaved per unit time. The percent inhibition is 100×(1- (rate in presence of inhibitor)/(rate in absence of inhibitor)).
The test compounds were then tested at a concentration of 0.5 nM.
For series [3], the system named is HIV. Put plainly: Antiviral activity: inhibition of the cytopathic effect of HIV in MT4 cells. The format is cell-based. Conditions: MT4 cells; 50% inhibition of the cytopathic effect of HIV; read-out: EC50.
Description: as §1
Background: Protection from cytopathic effect is a common read-out in antiviral testing.

Molecule “2-(1-Methylethyl)-4-thiazolylmethyl-(1S)-1-[[[(1S,2R)-3-[[(4-aminophenyl)sulfonyl](1-methylethyl)amino]-2-hydroxy-1-(phenylmethyl)propyl]amino]carbonyl]-2-methylpropyl]carbamate [Example 28]” had a CC50 in series [1] of 49.5 µM. The “% Inhib. (0.5 nM)” value in series [2] is 77%. The pEC50 in series [3] is 7.96.

In series [1], “2-(1-Methylethyl)-4-thiazolylmethyl-[(1S)-1-[[[(1S,2R)-3-[(2S)-2-[[(1,1-dimethylethyl)amino]carbonyl]-4-(5-thienylmethyl)-1-piperazinyl]-2-hydroxy-1-(phenylmethyl)propyl]amino]carbonyl]-2-methylpropyl]carbamate [Example 4]” displayed a CC50 of 69 µM. Besides, the “% Inhib. (0.5 nM)” value in series [2] was 67%. The pEC50 in series [3] was 7.92.

“2-(1-Methylethyl)-4-thiazolylmethyl-[(1S)-1-[[[(1S,2R)-3-[[[(1,1-dimethylethyl)amino]carbonyl](2-methylethyl)propylamino]-2-hydroxy-1-(phenylmethyl)propyl]amino]carbonyl]-2-methylpropyl]carbamate [Example 27]” had a CC50 in series [1] of 20.6 µM. Also, in series [2], the “% Inhib. (0.5 nM)” value was determined as 50%. Moreover, the pEC50 in series [3] is 6.43.

“5-Thiazolylmethyl-[(1S)-1-[[[(1S,2R)-3-[(2S)-2-[[(1,1-dimethylethyl)amino]carbonyl]-4-(phenylmethyl)-1-piperazinyl]-2-hydroxy-1-(phenylmethyl)propyl]amino]carbonyl]-2-methylpropyl]carbamate [Example 24]” registered a CC50 in series [1] of 55.4 µM. Also, in series [2], the “% Inhib. (0.5 nM)” value is given as 40%. Also, the pEC50 in series [3] is 7.77.

In series [1], `CC(C)c1nc(COC(=O)N[C@H](C(=O)N[C@@H](Cc2ccccc2)[C@H](O)CN2CCN(Cc3ccc4c(c3)OCO4)C[C@H]2C(=O)NC(C)(C)C)C(C)C)cs1` [Example 1, 2-(1-Methylethyl)-4-thiazolylmethyl-[(1S)-1-[[[(1S,2R)-3-[(2S)-4-(1,3-benzodioxol-5-ylmethyl)-2-[[(1,1-dimethylethyl)amino]carbonyl]-1-piperazinyl]-2-hydroxy-1-(phenylmethyl)propyl]amino]carbonyl]-2-methylpropyl]carbamate] yielded a CC50 of 12.8 µM. In addition, the “% Inhib. (0.5 nM)” value in series [2] was determined as 60%. The pEC50 in series [3] is 8.52.

In turn, `CC(C)c1nc(COC(=O)N[C@H](C(=O)N[C@@H](Cc2ccccc2)[C@H](O)CN2CCN(Cc3ccccc3)C[C@H]2C(=O)NC(C)(C)C)C(C)C)cs1` [Example 2, 2-(1-Methylethyl)-4-thiazolylmethyl-[(1S)-1-[[[(1S,2R)-3-[(2S)-2-[[(1,1-dimethylethyl)amino]carbonyl]-4-(phenylmethyl)-1-piperazinyl]-2-hydroxy-1-(phenylmethyl)propyl]amino]carbonyl]-2-methylpropyl]carbamate] showed a CC50 in series [1] of 47.1 µM. In series [2], the “% Inhib. (0.5 nM)” value came to 66%. In addition, the pEC50 in series [3] was 7.66.

Consider `CC(C)c1nc(COC(=O)N[C@H](C(=O)N[C@@H](Cc2ccccc2)[C@H](O)CN2CCN(Cc3ccc(F)cc3)C[C@H]2C(=O)NC(C)(C)C)C(C)C)cs1` [Example 3], for which, in series [1], the midpoint of cytotoxicity, the CC50, lay at 15.7 µM. Further, the “% Inhib. (0.5 nM)” value in series [2] was 64%. Also, the pEC50 in series [3] is 7.68.

On to `CC(C)c1nc(COC(=O)N[C@H](C(=O)N[C@@H](Cc2ccccc2)[C@H](O)CN2CCN(Cc3cccc(O)c3)C[C@H]2C(=O)NC(C)(C)C)C(C)C)cs1` [Example 5, 2-(1-Methylethyl)-4-thiazolylmethyl-[(1S)-1-[[[(1S,2R)-3-[(2S)-2-[[(1,1-dimethylethyl)amino]carbonyl]-4-[4-(3-hydroxyphenyl)methyl]-1-piperazinyl]-2-hydroxy-1-(phenylmethyl)propyl]amino]carbonyl]-2-methylpropyl]carbamate], for which it took 16.7 µM to reach half-maximal cytotoxicity in series [1] (CC50). In addition, in series [2], the “% Inhib. (0.5 nM)” value turned out to be 69%. In addition, in series [3], the negative-log EC50 (pEC50) is 7.40.

In series [1], `CC(C)c1nc(COC(=O)N[C@H](C(=O)N[C@@H](Cc2ccccc2)[C@H](O)CN2CCN(Cc3cccnc3)C[C@H]2C(=O)NC(C)(C)C)C(C)C)cs1` [Example 6, 2-(1-Methylethyl)-4-thiazolylmethyl-[(1S)-1-[[[(1S,2R)-3-[(2S)-2-[[(1,1-dimethylethyl)amino]carbonyl]-4-(3-pyridinylmethyl)-1-piperazinyl]-2-hydroxy-1-(phenylmethyl)propyl]amino]carbonyl]-2-methylpropyl]carbamate] gave a CC50 of 58.6 µM. Moreover, the “% Inhib. (0.5 nM)” value in series [2] came out at 60%. In series [3], the pEC50 was 7.92.

`CC(C)c1nc(COC(=O)N[C@H](C(=O)N[C@@H](Cc2ccccc2)[C@H](O)CN2CCN(Cc3ccncc3)C[C@H]2C(=O)NC(C)(C)C)C(C)C)cs1` [Example 7, 2-(1-Methylethyl)-4-thiazolylmethyl-[(1S)-1-[[[(1S,2R)-3-[(2S)-2-[[(1,1-dimethylethyl)amino]carbonyl]-4-(4-pyridinylmethyl)-1-piperazinyl]-2-hydroxy-1-(phenylmethyl)propyl]amino]carbonyl]-2-methylpropyl]carbamate]: it took 55.2 µM to reach half-maximal cytotoxicity in series [1] (CC50). In series [2], the “% Inhib. (0.5 nM)” value is 73%. For the same molecule, in series [3], the pEC50 was 7.77.

As for `CC(C)c1nc(COC(=O)N[C@H](C(=O)N[C@@H](Cc2ccccc2)[C@H](O)CN2CCN(Cc3ccc(O)cc3)C[C@H]2C(=O)NC(C)(C)C)C(C)C)cs1` [Example 8, 2-(1-Methylethyl)-4-thiazolylmethyl-[(1S)-1-[[[(1S,2R)-3-[(2S)-2-[[(1,1-dimethylethyl)amino]carbonyl]-4-[(4-hydroxyphenyl)methyl]-1-piperazinyl]-2-hydroxy-1-(phenylmethyl)propyl]amino]carbonyl]-2-methylpropyl]carbamate], in series [1], the midpoint of cytotoxicity, the CC50, lay at 18.9 µM. Moreover, the “% Inhib. (0.5 nM)” value in series [2] stood at 54%. Besides, the pEC50 in series [3] was 7.33.

With `CC(C)c1nc(COC(=O)N[C@H](C(=O)N[C@@H](Cc2ccccc2)[C@H](O)CN2CCN(Cc3nc4ccccc4[nH]3)C[C@H]2C(=O)NC(C)(C)C)C(C)C)cs1` [Example 9], the CC50 in series [1] came to 18.4 µM. In series [2], the “% Inhib. (0.5 nM)” value is 65%. Also, in series [3], the pEC50 is 7.34.

In turn, `CC(C)c1nc(COC(=O)N[C@H](C(=O)N[C@@H](Cc2ccccc2)[C@H](O)CN2CCN(Cc3ccc4ccccc4n3)C[C@H]2C(=O)NC(C)(C)C)C(C)C)cs1` [Example 10, 2-(1-Methylethyl)-4-thiazolylmethyl-[(1S)-1-[[[(1S,2R)-3-[(2S)-2-[[(1,1-dimethylethyl)amino]carbonyl]-4-(2-quinolinylmethyl)-1-piperazinyl]-2-hydroxy-1-(phenylmethyl)propyl]amino]carbonyl]-2-methylpropyl]carbamate] had a CC50 in series [1] of 18.2 µM. Further, the “% Inhib. (0.5 nM)” value in series [2] was determined as 70%. Moreover, the pEC50 in series [3] was 7.85.

Regarding `COc1ccc(CN2CCN(C[C@@H](O)[C@H](Cc3ccccc3)NC(=O)[C@@H](NC(=O)OCc3csc(C(C)C)n3)C(C)C)[C@H](C(=O)NC(C)(C)C)C2)cc1OC` [Example 11, 2-(1-Methylethyl)-4-thiazolylmethyl[(1S)-1-[[[(1S,2R)-3-[(2S)-4-[(3,4-dimethoxylphenyl)methyl]-2-[[(1,1-dimethylethyl)amino]carbonyl]-1-piperazinyl]-2-hydroxy-1-(phenylmethyl)propyl]amino]carbonyl]-2-methylpropyl]carbamate], the CC50 in series [1] was 18.3 µM. Besides, in series [2], the “% Inhib. (0.5 nM)” value amounted to 62%. Also, in series [3], the pEC50 was 7.77.

Regarding `Cc1nc(COC(=O)N[C@H](C(=O)N[C@@H](Cc2ccccc2)[C@H](O)CN2CCN(Cc3ccc4c(c3)OCO4)C[C@H]2C(=O)NC(C)(C)C)C(C)C)cs1` [Example 15, 2-Methyl-4-thiazolylmethyl-[(1S)-1-[[[(1S,2R)-3-[(2S)-4-(1,3-benzodioxol-5-ylmethyl)-2-[[(1,1-dimethylethyl)amino]carbonyl]-1-piperazinyl]-2-hydroxy-1-(phenylmethyl)propyl]amino]carbonyl]-2-methylpropyl]carbamate], in series [1], the CC50 was determined as 53.1 µM. Moreover, the “% Inhib. (0.5 nM)” value in series [2] is reported as 45%. The pEC50 in series [3] is 7.96.

Molecule `COc1ccc(CN2CCN(C[C@@H](O)[C@H](Cc3ccccc3)NC(=O)[C@@H](NC(=O)OCc3csc(C)n3)C(C)C)[C@H](C(=O)NC(C)(C)C)C2)cc1OC` [Example 16, 2-Methyl-4-thiazolylmethyl-[(1S)-1-[[[(1S,2R)-3-[(2S)-4-[(3,4-dimethoxylphenyl)methyl]-2-[[(1,1-dimethylethyl)amino]carbonyl]-1-piperazinyl]-2-hydroxy-1-(phenylmethyl)propyl]amino]carbonyl]-2-methylpropyl]carbamate] gave a CC50 in series [1] of 61.7 µM. Further, the “% Inhib. (0.5 nM)” value in series [2] was determined as 49%. Further, the pEC50 in series [3] was 8.00.

Consider `Cc1nc(COC(=O)N[C@H](C(=O)N[C@@H](Cc2ccccc2)[C@H](O)CN2CCN(Cc3ccc(F)cc3)C[C@H]2C(=O)NC(C)(C)C)C(C)C)cs1` [Example 17, 2-Methyl-4-thiazolylmethyl-[(1S)-1-[[[(1S,2R)-3-[(2S)-2-[[(1,1-dimethylethyl)amino]carbonyl]-4-[(4-fluorophenyl)methyl]-1-piperazinyl]-2-hydroxy-1-(phenylmethyl)propyl]amino]carbonyl]-2-methylpropyl]carbamate], for which the CC50 in series [1] came out at 39.2 µM. Besides, the “% Inhib. (0.5 nM)” value in series [2] worked out at 50%. Further, in series [3], the pEC50 is 7.96.

In the case of `CCc1nc(COC(=O)N[C@H](C(=O)N[C@@H](Cc2ccccc2)[C@H](O)CN2CCN(Cc3ccc(OC)c(OC)c3)C[C@H]2C(=O)NC(C)(C)C)C(C)C)cs1` [Example 18], it took 44.6 µM to reach half-maximal cytotoxicity in series [1] (CC50). In addition, the “% Inhib. (0.5 nM)” value in series [2] is reported as 82%. Moreover, the pEC50 in series [3] is 7.72.

Broadly, the CC50 is the concentration that lowers cell viability or growth by half. The low end stands for greater toxicity to the cells, the high end for lower toxicity to the cells. As usually defined, the pEC50 is −log10 of the EC50, conventionally taken in molar units.

The values above are taken from patent US20010008892A1 (priority 1998, published 2001).
